Laboratory results from US12084472B2 (Ardelyx, Inc., priority 2015, dated 2024).

What follows are molecules tested against T1, human TGR5 (Homo sapiens, UniProt Q8TDU6) (assay: Cell-based TGR5 assay (cAMP generation, HTRF)). Conditions: HEK293 cells stably transfected with human TGR5; cAMP by HTRF; 30 minutes at 37° C.; read-out: pEC50 Human TGR5 (converted).
T1 construct: expressed in transfected cells; host or cells: HEK293
T1 sequence (Q8TDU6 1-330): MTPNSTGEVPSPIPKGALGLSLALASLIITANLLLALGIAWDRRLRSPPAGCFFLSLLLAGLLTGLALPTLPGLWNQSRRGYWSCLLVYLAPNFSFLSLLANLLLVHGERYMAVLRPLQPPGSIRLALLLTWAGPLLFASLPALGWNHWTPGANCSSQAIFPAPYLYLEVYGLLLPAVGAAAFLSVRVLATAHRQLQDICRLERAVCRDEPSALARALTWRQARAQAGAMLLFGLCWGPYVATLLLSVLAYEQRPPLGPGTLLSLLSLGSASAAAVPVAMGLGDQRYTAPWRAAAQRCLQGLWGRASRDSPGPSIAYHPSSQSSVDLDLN
Summary of the method: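 First, compounds in 3-fold serial dilution were placed in HBSS with 10 mM HEPES pH 7.4 and 0.5 mM IBMX. Next, human TGR5-expressing HEK293 cells were added and incubated 30 min at 37° C. Finally, cAMP was detected by HTRF and pEC50 derived by logistic fitting.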

Structure (SMILES) | EC50 [nM]
CC(CCCC(=O)N(CCC(=O)N(C)C)C[C@H](O)[C@@H](O)[C@H](O)[C@H](O)CO)c1ccc(Cl)c(CNC2(c3cnccc3-c3ccccc3OC3CC3)CC2)c1 (stereo partly drawn) [Compound I-345, 5-{4-chloro-3-[({1-[4-(2-cyclopropoxyphenyl)pyridin-3-yl]cyclopropyl}amino)methyl]phenyl}-N-[2-(dimethylcarbamoyl)ethyl]-N-[(2S,3R,4R,5R)-2,3,4,5,6-pentahydroxyhexyl]hexanamide] | 126 to 1000
CC(CCCC(=O)N(CCCS(C)(=O)=O)C[C@H](O)[C@@H](O)[C@H](O)[C@H](O)CO)c1ccc(Cl)c(CNC2(c3cnccc3-c3ccccc3OC3CC3)CC2)c1 (stereo partly drawn) [Compound I-347, 5-{4-chloro-3-[({1-[4-(2-cyclopropoxyphenyl)pyridin-3-yl]cyclopropyl}amino)methyl]phenyl}-N-(3-methanesulfonylpropyl)-N-[(2S,3R,4R,5R)-2,3,4,5,6-pentahydroxyhexyl]hexanamide] | < 100
CCc1ccc(C(C)CCCC(=O)NC[C@H](O)[C@@H](O)[C@H](O)[C@H](O)CO)cc1CNC1(c2cnccc2-c2ccccc2OC2CC2)CC1 (stereo partly drawn) [Compound I-349, 5-{3-[({1-[4-(2-cyclopropoxyphenyl)pyridin-3-yl]cyclopropyl}amino)methyl]-4-ethylphenyl}-N-[(2S,3R,4R,5R)-2,3,4,5,6-pentahydroxyhexyl]hexanamide] | < 100
Cc1ccc(C(C)CCCC(=O)N(C)C[C@H](O)[C@@H](O)[C@H](O)[C@H](O)CO)cc1CNC1(c2cnccc2-c2ccccc2OC2CC2)CC1 (stereo partly drawn) [Compound I-352, 5-{3-[({1-[4-(2-cyclopropoxyphenyl)pyridin-3-yl]cyclopropyl}amino)methyl]-4-methylphenyl}-N-methyl-N-[(2S,3R,4R,5R)-2,3,4,5,6-pentahydroxyhexyl]hexanamide] | < 100
Cc1ccc(C(C)CCCC(=O)N(CC(N)=O)C[C@H](O)[C@@H](O)[C@H](O)[C@H](O)CO)cc1CNC1(c2cnccc2-c2ccccc2OC2CC2)CC1 (stereo partly drawn) [Compound I-356, N-(carbamoylmethyl)-5-{3-[({1-[4-(2-cyclopropoxyphenyl)pyridin-3-yl]cyclopropyl}amino)methyl]-4-methylphenyl}-N-[(2S,3R,4R,5R)-2,3,4,5,6-pentahydroxyhexyl]hexanamide] | < 100
Cc1ccc(C(C)CCCC(=O)N(CCC(N)=O)C[C@H](O)[C@@H](O)[C@H](O)[C@H](O)CO)cc1CNC1(c2cnccc2-c2ccccc2OC2CC2)CC1 (stereo partly drawn) [Compound I-359, N-(2-carbamoylethyl)-5-{3-[({1-[4-(2-cyclopropoxyphenyl)pyridin-3-yl]cyclopropyl}amino)methyl]-4-methylphenyl}-N-[(2S,3R,4R,5R)-2,3,4,5,6-pentahydroxyhexyl]hexanamide] | 126 to 1000
CNC(=O)CN(C[C@H](O)[C@@H](O)[C@H](O)[C@H](O)CO)C(=O)CCCC(C)c1ccc(C)c(CNC2(c3cnccc3-c3ccccc3OC3CC3)CC2)c1 (stereo partly drawn) [Compound I-360, 5-{3-[({1-[4-(2-cyclopropoxyphenyl)pyridin-3-yl]cyclopropyl}amino)methyl]-4-methylphenyl}-N-[(methylcarbamoyl)methyl]-N-[(2S,3R,4R,5R)-2,3,4,5,6-pentahydroxyhexyl]hexanamide] | < 100

Next, values leading:

EC50 [nM] | Structure (SMILES)
< 100 | CC(CCCC(=O)N(C[C@@H](O)[C@H](O)[C@@H](O)[C@@H](O)CO)[C@H]1CC[C@@H](O)CC1)c1ccc(Cl)c(CNC2(c3cnccc3-c3ccccc3OC3CC3)CC2)c1 (stereo partly drawn) [Compound I-343, 5-{4-chloro-3-[({1-[4-(2-cyclopropoxyphenyl)pyridin-3-yl]cyclopropyl}amino)methyl]phenyl}-N-[(2R,3S,4S,5S)-2,3,4,5,6-pentahydroxyhexyl]-N-[(1s,4s)-4-hydroxycyclohexyl]hexanamide]
126 to 1000 | CCNC(=O)CCN(C[C@H](O)[C@@H](O)[C@H](O)[C@H](O)CO)C(=O)CCCC(C)c1ccc(Cl)c(CNC2(c3cnccc3-c3ccccc3OC3CC3)CC2)c1 (stereo partly drawn) [Compound I-344, 5-{4-chloro-3-[({1-[4-(2-cyclopropoxyphenyl)pyridin-3-yl]cyclopropyl}amino)methyl]phenyl}-N-[2-(ethylcarbamoyl)ethyl]-N-[(2S,3R,4R,5R)-2,3,4,5,6-pentahydroxyhexyl]hexanamide]
< 100 | CC(CCCC(=O)N(CCS(C)(=O)=O)C[C@@H](O)[C@H](O)[C@@H](O)[C@@H](O)CO)c1ccc(Cl)c(CNC2(c3cnccc3-c3ccccc3OC3CC3)CC2)c1 (stereo partly drawn) [Compound I-346, 5-{4-chloro-3-[({1-[4-(2-cyclopropoxyphenyl)pyridin-3-yl]cyclopropyl}amino)methyl]phenyl}-N-(2-methanesulfonylethyl)-N-[(2R,3S,4S,5S)-2,3,4,5,6-pentahydroxyhexyl]hexanamide]
< 100 | CC(CCCC(=O)N(CCS(=O)(=O)N(C)C)C[C@H](O)[C@@H](O)[C@H](O)[C@H](O)CO)c1ccc(Cl)c(CNC2(c3cnccc3-c3ccccc3OC3CC3)CC2)c1 (stereo partly drawn) [Compound I-348, 5-{4-chloro-3-[({1-[4-(2-cyclopropoxyphenyl)pyridin-3-yl]cyclopropyl}amino)methyl]phenyl}-N-[2-(dimethylsulfamoyl)ethyl]-N-[(2S,3R,4R,5R)-2,3,4,5,6-pentahydroxyhexyl]hexanamide]
< 100 | Cc1ccc(C(C)CCCC(=O)N(C[C@H](O)[C@@H](O)[C@H](O)[C@H](O)CO)C(C)C)cc1CNC1(c2cnccc2-c2ccccc2OC2CC2)CC1 (stereo partly drawn) [Compound I-353, 5-{3-[({1-[4-(2-cyclopropoxyphenyl)pyridin-3-yl]cyclopropyl}amino)methyl]-4-methylphenyl}-N-[(2S,3R,4R,5R)-2,3,4,5,6-pentahydroxyhexyl]-N-(propan-2-yl)hexanamide]
< 100 | CCCN(C[C@H](O)[C@@H](O)[C@H](O)[C@H](O)CO)C(=O)CCCC(C)c1ccc(C)c(CNC2(c3cnccc3-c3ccccc3OC3CC3)CC2)c1 (stereo partly drawn) [Compound I-354, 5-{3-[({1-[4-(2-cyclopropoxyphenyl)pyridin-3-yl]cyclopropyl}amino)methyl]-4-methylphenyl}-N-[(2S,3R,4R,5R)-2,3,4,5,6-pentahydroxyhexyl]-N-propylhexanamide]
< 100 | Cc1ccc(C(C)CCCC(=O)N(CCO)C[C@H](O)[C@@H](O)[C@H](O)[C@H](O)CO)cc1CNC1(c2cnccc2-c2ccccc2OC2CC2)CC1 (stereo partly drawn) [Compound I-355, 5-{3-[({1-[4-(2-cyclopropoxyphenyl)pyridin-3-yl]cyclopropyl}amino)methyl]-4-methylphenyl}-N-(2-hydroxyethyl)-N-[(2S,3R,4R,5R)-2,3,4,5,6-pentahydroxyhexyl]hexanamide]
< 100 | COCCN(C[C@H](O)[C@@H](O)[C@H](O)[C@H](O)CO)C(=O)CCCC(C)c1ccc(C)c(CNC2(c3cnccc3-c3ccccc3OC3CC3)CC2)c1 (stereo partly drawn) [Compound I-357, 5-{3-[({1-[4-(2-cyclopropoxyphenyl)pyridin-3-yl]cyclopropyl}amino)methyl]-4-methylphenyl}-N-(2-methoxyethyl)-N-[(2S,3R,4R,5R)-2,3,4,5,6-pentahydroxyhexyl]hexanamide]
126 to 1000 | Cc1ccc(C(C)CCCC(=O)N(CCCO)C[C@H](O)[C@@H](O)[C@H](O)[C@H](O)CO)cc1CNC1(c2cnccc2-c2ccccc2OC2CC2)CC1 (stereo partly drawn) [Compound I-358, 5-{3-[({1-[4-(2-cyclopropoxyphenyl)pyridin-3-yl]cyclopropyl}amino)methyl]-4-methylphenyl}-N-(3-hydroxypropyl)-N-[(2S,3R,4R,5R)-2,3,4,5,6-pentahydroxyhexyl]hexanamide]
